Here are results for 18 compounds from patent US8003695B2 (Chroma Therapeutics Ltd., priority 2006, dated 2011).

SMILES strings stand for the structures.

For assay [1], the target named is T1, IKBKB (IKKβ) (Homo sapiens, UniProt O14920).
T1 construct: purchased Invitrogen (Paisley, UK)
T1 sequence (O14920 1-756): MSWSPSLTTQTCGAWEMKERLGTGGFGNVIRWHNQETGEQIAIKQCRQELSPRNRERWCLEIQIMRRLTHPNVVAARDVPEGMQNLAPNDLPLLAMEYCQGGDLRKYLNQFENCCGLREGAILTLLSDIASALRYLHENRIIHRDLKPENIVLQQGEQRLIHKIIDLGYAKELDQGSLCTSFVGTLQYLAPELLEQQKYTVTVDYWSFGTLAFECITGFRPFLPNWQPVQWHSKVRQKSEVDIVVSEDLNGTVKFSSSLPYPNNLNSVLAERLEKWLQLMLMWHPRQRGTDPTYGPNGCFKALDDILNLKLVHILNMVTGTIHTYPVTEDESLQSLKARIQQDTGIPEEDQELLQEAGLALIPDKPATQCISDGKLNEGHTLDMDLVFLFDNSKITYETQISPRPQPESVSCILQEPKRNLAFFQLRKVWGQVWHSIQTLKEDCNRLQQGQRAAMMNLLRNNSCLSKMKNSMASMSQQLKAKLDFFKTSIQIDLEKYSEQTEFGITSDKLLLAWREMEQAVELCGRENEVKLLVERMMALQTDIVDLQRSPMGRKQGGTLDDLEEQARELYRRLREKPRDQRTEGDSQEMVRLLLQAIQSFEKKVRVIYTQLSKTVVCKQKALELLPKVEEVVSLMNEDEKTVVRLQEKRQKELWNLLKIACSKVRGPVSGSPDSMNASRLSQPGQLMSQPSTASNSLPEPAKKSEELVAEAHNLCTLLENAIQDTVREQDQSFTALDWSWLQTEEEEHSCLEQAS
Briefly: IKKβ Enzyme Assay (Z'-LYTE, Invitrogen). Format: biochemical. As to conditions: ATP at or close to Km; read-out: Inhibitor activity versus IKKβ. The procedure:
The ability of compounds to inhibit IKKβ kinase activity was measured in an assay performed by Invitrogen (Paisley, UK). The Z′-LYTE™ biochemical assay employs a fluorescence-based, coupled-enzyme format and is based on the differential sensitivity of phosphorylated and non-phosphorylated peptides to proteolytic cleavage. The peptide substrate is labelled with two fluorophores—one at each end—that make up a FRET pair. In the primary reaction, the kinase transfers the gamma-phosphate of ATP to a single serine or threonine residue in a synthetic FRET-peptide. In the secondary reaction, a site-specific protease recognizes and cleaves non-phosphorylated FRET-peptides. Phosphorylation of FRET-peptides suppresses cleavage by the Development Reagent. Cleavage disrupts FRET between the donor (i.e., coumarin) and acceptor (i.e. fluorescein) fluorophores on the FRET-peptide, whereas uncleaved, phosphorylated FRET-peptides maintain FRET. A […] method, which calculates the ratio (the Emission Ratio) of donor emission to acceptor emission after excitation of the donor fluorophore at 400 nm, is used to quantitate reaction progress.
The final 10 μL Kinase Reaction consists of 0.9-8.0 ng IKBKB (IKKβ), 2 μM Ser/Thr 05 Peptide and ATP in 50 mM HEPES pH 7.5, 0.01% BRIJ-35, 10 mM MgCl2, 1 mM EGTA. The assay is performed at an ATP concentration at, or close to the Km. After the 60 minute Kinase Reaction incubation at room temperature, 5 μL of a 1:128 dilution of Development Reagent is added. The assay plate is incubated for a further 60 minutes at room temperature and read on a fluorescence plate reader.
Duplicate data points are generated from a ⅓ log dilution series of a stock solution of test compound in DMSO. Nine dilutions steps are made from a top concentration of 10 μM, and a ‘no compound’ blank is included. Data is collected and analysed using XLfit software from IDBS. The dose response curve is curve fitted to model number 205 (sigmoidal dose-response model). From the curve generated, the concentration giving 50% inhibition is determined and reported.

For assay [2], the system named is THP-1 cells. Briefly: LPS-Stimulation of THP-1 Cells, TNF-α release. In kind it is cell-based. As to conditions: Homo sapiens, LPS 1 μg/ml, 6 hrs, read-out: Inhibitor activity versus THP-1 TNFα release. As to the method:
LPS-Stimulation of THP-1 Cells
THP-1 cells were plated in 100 μl at a density of 4×10^4 cells/well in V-bottomed 96 well tissue culture treated plates and incubated at 37° C. in 5% CO2 for 16 hrs. 2 hrs after the addition of the inhibitor in 100 μl of tissue culture media, the cells were stimulated with LPS (E. coli strain 005:85, Sigma) at a final concentration of 1 μg/ml and incubated at 37° C. in 5% CO2 for 6 hrs. TNF-α levels were measured from cell-free supernatants by sandwich ELISA (R&D Systems #QTA00B)

Assay [3] has as its system human whole blood. Briefly: LPS-Stimulation of Human Whole Blood, TNF-α release. Format: cell-based. As to conditions: LPS 100 ng/ml, 6 hrs, read-out: Inhibitor activity versus human whole blood TNFα release. The procedure:
LPS-Stimulation of Human Whole Blood
Whole blood was taken by venous puncture using heparinised vacutainers (Becton Dickinson) and diluted in an equal volume of RPMI1640 tissue culture media (Sigma). 100 μl was plated in V-bottomed 96 well tissue culture treated plates. 2 hrs after the addition of the inhibitor in 100 μl of RPMI1640 media, the blood was stimulated with LPS (E. coli strain 005:B5, Sigma) at a final concentration of 100 ng/ml and incubated at 37° C. in 5% CO2 for 6 hrs. TNF-α levels were measured from cell-free supernatants by sandwich ELISA (R&D Systems #QTA00B)

For `NC(=O)Nc1sc(-c2ccc(CN[C@H](C(=O)OC3CCCC3)c3ccccc3)cc2)cc1C(N)=O` [Example 1, Cyclopentyl (2S)-({-4-[4-carbamoyl-5-(carbamoylamino)-2-thienyl]benzyl}amino)(phenyl)acetate], the IC50 is 1000 to 5000 nM in assay [1], 1 to 5 µM in assay [2] and 1 to 5 µM in assay [3].

`CC(C)C[C@H](NCc1ccc(-c2cc(C(N)=O)c(NC(N)=O)s2)cc1)C(=O)OC1CCCC1` [Example 2, Cyclopentyl N-{4-[4-carbamoyl-5-(carbamoylamino)-2-thienyl]benzyl}-L-leucinate]: the values for the IC50 in assay [1], in assay [2] and in assay [3] were below 1000 nM, above 5 µM and 1 to 5 µM, respectively.

`NC(=O)Nc1sc(-c2cccc(CN[C@@H](CO)C(=O)OC3CCCC3)c2)cc1C(N)=O` [Example 12, Cyclopentyl N-{3-[4-carbamoyl-5-(carbamoylamino)thiophen-2-yl]benzyl}-L-serinate]: the IC50 in assay [1] is below 1000 nM; in assay [3] it was below 1 µM.

Regarding `CC(C)[C@H](NCc1cccc(-c2cc(C(N)=O)c(NC(N)=O)s2)c1)C(=O)OC1CCCC1` [Example 15, Cyclopentyl N-{3-[4-carbamoyl-5-(carbamoylamino)thiophen-2-yl]benzyl}-L-valinate], the IC50 in assay [3] was 1 to 5 µM.

`CC(C)(C)OC[C@H](NCCc1cccc(-c2cc(C(N)=O)c(NC(N)=O)s2)c1)C(=O)OC1CCCC1` [Example 20, Cyclopentyl O-tert-butyl-N-(2-{3-[4-carbamoyl-5-(carbamoylamino)-2-thienyl]phenyl}ethyl)-L-serinate]: the IC50 in assay [3] fell in the range of 1 to 5 µM.

For `C[C@@H](OC(C)(C)C)[C@H](NCCc1cccc(-c2cc(C(N)=O)c(NC(N)=O)s2)c1)C(=O)OC1CCCC1` [Example 21, Cyclopentyl O-tert-butyl-N-(2-{3-[4-carbamoyl-5-(carbamoylamino)-2-thienyl]phenyl}ethyl)-L-threoninate], in assay [3], the IC50 was above 5 µM.

Consider `Cc1ccc(-c2cc(C(N)=O)c(NC(N)=O)s2)cc1CCN[C@@H](CC(C)C)C(=O)OC1CCCC1` [Example 23, Cyclopentyl N-(2-{5-[4-carbamoyl-5-(carbamoylamino)thiophen-2-yl]-2-methylphenyl}ethyl)-L-leucinate], for which the IC50 in assay [3] was above 5 µM.

For `CC(C)C[C@H](NCCc1cc(-c2cc(C(N)=O)c(NC(N)=O)s2)ccc1Cl)C(=O)OC1CCCC1` [Example 24, Cyclopentyl N-(2-{5-[4-carbamoyl-5-(carbamoylamino)thiophen-2-yl]-2-chlorophenyl}ethyl)-L-leucinate], the IC50 in assay [3] is above 5 µM.

On to `CC(C)C[C@H](NC/C=C/c1ccc(-c2cc(C(N)=O)c(NC(N)=O)s2)cc1C(F)(F)F)C(=O)OC1CCCC1` [Example 36, Cyclopentyl N-[(2E)-3-{4-[4-carbamoyl-5-(carbamoylamino)thiophen-2-yl]-2-(trifluoromethyl)phenyl}prop-2-en-1-yl]-L-leucinate], for which the IC50 in assay [1] was 1000 to 5000 nM; in assay [2] it was above 5 µM.

As to `CC(C)C[C@H](NC/C=C/c1cc(F)c(-c2cc(C(N)=O)c(NC(N)=O)s2)cc1F)C(=O)OC1CCCC1` [Example 37, Cyclopentyl N-[(2E)-3-{4-[4-carbamoyl-5-(carbamoylamino)thiophen-2-yl]-2,5-difluorophenyl}prop-2-en-1-yl]-L-leucinate], the IC50 in assay [1] fell in the range of 1000 to 5000 nM; in assay [2] it was 1 to 5 µM.

As for `CC(C)C[C@H](NC/C=C/c1c(F)cc(-c2cc(C(N)=O)c(NC(N)=O)s2)cc1F)C(=O)OC1CCCC1` [Example 38, Cyclopentyl N-[(2E)-3-{4-[4-carbamoyl-5-(carbamoylamino)thiophen-2-yl]-2,6-difluorophenyl}prop-2-en-1-yl]-L-leucinate], the IC50 in assay [1] is above 5000 nM; in assay [3] it was 1 to 5 µM.

On to `CC(C)C[C@H](NC/C=C/c1ccc(-c2cc(C(N)=O)c(NC(N)=O)s2)c(C(F)(F)F)c1)C(=O)OC1CCCC1` [Example 39, Cyclopentyl N-[(2E)-3-{4-[4-carbamoyl-5-(carbamoylamino)thiophen-2-yl]-3-(trifluoromethyl)phenyl}prop-2-en-1-yl]-L-leucinate], for which the IC50 in assay [1] was above 5000 nM; in assay [3] it was 1 to 5 µM.

`CC(C)(C)OC[C@H](NC/C=C/c1ccc(-c2cc(C(N)=O)c(NC(N)=O)s2)cc1)C(=O)OC1CCCC1` [Example 43, Cyclopentyl O-tert-butyl-N-[(2E)-3-{4-[4-carbamoyl-5-(carbamoylamino)thiophen-2-yl]phenyl}prop-2-en-1-yl]-L-serinate]: the IC50 in assay [1] was below 1000 nM; in assay [3] it was 1 to 5 µM.

With `NC(=O)Nc1sc(-c2ccc(/C=C/CN[C@H](C(=O)OC3CCCC3)C3CCCCC3)cc2)cc1C(N)=O` [Example 44, Cyclopentyl (2S)-{[(2E)-3-{4-[4-carbamoyl-5-(carbamoylamino)thiophen-2-yl]phenyl}prop-2-en-1-yl]amino}(cyclohexyl)ethanoate], the IC50 in assay [1] was below 1000 nM; in assay [3] it was above 5 µM.

Turning to `CC(C)(C)OC(=O)[C@@H](NC/C=C/c1ccc(-c2cc(C(N)=O)c(NC(N)=O)s2)cc1)C1CCCCC1` [Example 45, tert-butyl (2S)-{[(2E)-3-{4-[4-carbamoyl-5-(carbamoylamino)thiophen-2-yl]phenyl}prop-2-en-1-yl]amino}(cyclohexyl)ethanoate], the IC50 in assay [1] was below 1000 nM; in assay [3] it was above 5 µM.

Turning to `CC(C)C[C@@H](NC/C=C/c1ccc(-c2cc(C(N)=O)c(NC(N)=O)s2)cc1)C(=O)OC1CCCC1` [Example 46, Cyclopentyl N-[(2E)-3-{4-[4-carbamoyl-5-(carbamoylamino)-2-thienyl]phenyl}prop-2-en-1-yl]-D-leucinate], the values for the IC50 in assay [1] and in assay [3] were below 1000 nM and 1 to 5 µM, respectively.

As for `C[C@@H](OC(C)(C)C)[C@H](NC/C=C/c1ccc(-c2cc(C(N)=O)c(NC(N)=O)s2)cc1)C(=O)OC1CCCC1` [Example 47, Cyclopentyl O-tert-butyl-N-[(2E)-3-{4-[4-carbamoyl-5-(carbamoylamino)thiophen-2-yl]phenyl}prop-2-en-1-yl]-L-threoninate], the IC50 in assay [3] was above 5 µM.

Take `C[C@@H](O)[C@H](NC/C=C/c1ccc(-c2cc(C(N)=O)c(NC(N)=O)s2)cc1)C(=O)OC1CCCC1` [Example 48, Cyclopentyl N-[(2E)-3-{4-[4-carbamoyl-5-(carbamoylamino)thiophen-2-yl]phenyl}prop-2-en-1-yl]-L-threoninate]: in assay [3], the IC50 was in the range of 1 to 5 µM.
